Experimental data reported in patent US9994594B2, “Inhibitors of arginase and their therapeutic applications” (MARS, INCORPORATED, priority 2010, dated 2018).
Structures can show the parent of a compound that is named as a salt.

Assays:
[1] = biological target: T1, arginase II (ARG II) (Homo sapiens, UniProt P78540); experiment: Inhibition of arginase II, spectrophotometric urea assay at 530 nm; type: biochemical; details: Formula I compounds, Table 2; read-out: Potency (ARG II)
T1 sequence (P78540 23-354): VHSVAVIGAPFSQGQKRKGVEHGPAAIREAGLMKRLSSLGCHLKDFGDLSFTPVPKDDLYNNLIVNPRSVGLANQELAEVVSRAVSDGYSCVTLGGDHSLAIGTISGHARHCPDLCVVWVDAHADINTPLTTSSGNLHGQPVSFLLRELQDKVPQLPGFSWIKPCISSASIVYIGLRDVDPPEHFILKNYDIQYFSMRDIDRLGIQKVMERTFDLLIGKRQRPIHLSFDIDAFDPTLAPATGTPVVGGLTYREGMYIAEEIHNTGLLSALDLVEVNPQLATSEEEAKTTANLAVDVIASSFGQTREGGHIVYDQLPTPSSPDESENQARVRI
How it was run: (§1)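 IC50 was derived by regression of OD530 normalized to uninhibited-enzyme controls against log concentration. Urea from 60-min, 37 °C turnover of L-arginine with manganese sulfate was detected after acid o-phthaldialdehyde/primaquine quench and 10 min colour development. Arginase I and II came from 100 ng/ml stocks in pH 7.4 phosphate with ovalbumin.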

[2] = biological target: T2, human arginase I (ARG I) (Homo sapiens, UniProt P05089); experiment: Inhibition of arginase I, spectrophotometric urea assay at 530 nm; type: biochemical; details: Formula I compounds, Table 2; read-out: Potency (ARG I)
T2 sequence (P05089 1-322): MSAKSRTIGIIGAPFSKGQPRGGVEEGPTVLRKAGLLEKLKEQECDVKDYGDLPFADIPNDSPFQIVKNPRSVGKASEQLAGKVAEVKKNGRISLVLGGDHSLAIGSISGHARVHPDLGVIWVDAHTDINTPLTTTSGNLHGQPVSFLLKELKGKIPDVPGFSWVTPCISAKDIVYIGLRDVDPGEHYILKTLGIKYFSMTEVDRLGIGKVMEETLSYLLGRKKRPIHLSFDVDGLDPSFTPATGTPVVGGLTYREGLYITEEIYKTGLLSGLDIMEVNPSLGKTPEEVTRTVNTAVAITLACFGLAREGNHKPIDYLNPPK
How it was run: as §1

Row | SMILES | IC50 [1] | IC50 [2]
1 | CCC(O)C(N)(CCCCB(O)O)C(=O)O (stereo not drawn) [compound 108, 2-amino-6-borono-2-(1-hydroxypropyl)hexanoic acid hydrochloride] | 2000 to 5000 nM | 1000 to 2000 nM
2 | NC(CCCCB(O)O)(C(=O)O)C(O)C1CCNCC1 (stereo not drawn) [compound 109, 2-amino-6-borono-2-(hydroxy(piperidin-4-yl)methyl)hexanoic acid dihydrochloride] | > 5000 nM | 2000 to 5000 nM
3 | NC(CCCCB(O)O)(C(=O)O)C(O)C1CCCNC1 (stereo not drawn) [compound 110, 2-amino-6-borono-2-(hydroxy(piperidin-3-yl)methyl)hexanoic acid dihydrochloride] | 2000 to 5000 nM | 1000 to 2000 nM
4 | NC(CCCCB(O)O)(C(=O)O)C(O)CCC(F)(F)F (stereo not drawn) [compound 111, 2-amino-2-(4-boronobutyl)-6,6,6-trifluoro-3-hydroxyhexanoic acid hydrochloride] | 2000 to 5000 nM | 2000 to 5000 nM
5 | NC(CCCCB(O)O)(C(=O)O)C(O)c1cccnc1 (stereo not drawn) [compound 112, 2-amino-6-borono-2-(hydroxy(pyridin-3-yl)methyl)hexanoic acid dihydrochloride] | 2000 to 5000 nM | 2000 to 5000 nM
6 | NC(CCCCB(O)O)C(=O)c1ccccc1 (stereo not drawn) [compound 114, 5-amino-6-oxo-6-phenylhexylboronic acid hydrochloride] | > 5000 nM | > 5000 nM
7 | NC(CCCCB(O)O)(CCc1ccccn1)C(=O)O (stereo not drawn) [compound 116, 2-amino-6-borono-2-(2-(pyridin-2-yl)ethyl)hexanoic acid dihydrochloride] | 2000 to 5000 nM | 2000 to 5000 nM
8 | NC(CCCCB(O)O)(CC1CN(Cc2ccc(Cl)c(Cl)c2)C1)C(=O)O (stereo not drawn) [compound 117, 2-amino-6-borono-2-((1-(3,4-dichlorobenzyl)azetidin-3-yl)methyl)hexanoic acid dihydrochloride] | 2000 to 5000 nM | 251 to 1000 nM
9 | NC(CCCCB(O)O)(CCNC(=S)Nc1ccc(Cl)c(Cl)c1)C(=O)O (stereo not drawn) [compound 119, 2-amino-6-borono-2-(2-(3-(3,4-dichlorophenyl)thioureido)ethyl)hexanoic acid hydrochloride] | 1000 to 2000 nM | 251 to 1000 nM
10 | CC(C)C(=O)NCCC(N)(CCCCB(O)O)C(=O)O (stereo not drawn) [compound 120, 2-amino-6-borono-2-(2-isobutyramidoethyl)hexanoic acid hydrochloride] | 2000 to 5000 nM | 1000 to 2000 nM
11 | NC(CCCCB(O)O)(CC1CNC1)C(=O)O (stereo not drawn) [compound 123, 2-amino-2-(azetidin-3-ylmethyl)-6-boronohexanoic acid dihydrochloride] | > 5000 nM | 2000 to 5000 nM
12 | CC(CC(N)(CCCCB(O)O)C(=O)O)N1CCC(Cc2ccccc2)CC1 (stereo not drawn) [compound 124, 2-amino-2-(2-(4-benzylpiperidin-1-yl)propyl)-6-boronohexanoic acid dihydrochloride] | 2000 to 5000 nM | 251 to 1000 nM
13 | NC(CCCCB(O)O)(CCN1CCC(Cc2ccc(F)cc2)CC1)C(=O)O (stereo not drawn) [compound 127, 2-amino-6-borono-2-(2-(4-(4-fluorobenzyl)piperidin-1-yl)ethyl)hexanoic acid dihydrochloride] | 251 to 1000 nM | 251 to 1000 nM
14 | CC1(C)CCN(CCC(N)(CCCCB(O)O)C(=O)O)CC1 (stereo not drawn) [compound 128, 2-amino-6-borono-2-(2-(4,4-dimethylpiperidin-1-yl)ethyl)hexanoic acid dihydrochloride] | 1000 to 2000 nM | 251 to 1000 nM
15 | CCCC1CCN(CCC(N)(CCCCB(O)O)C(=O)O)CC1 (stereo not drawn) [compound 129, 2-amino-6-borono-2-(2-(4-propylpiperidin-1-yl)ethyl)hexanoic acid dihydrochloride] | 1000 to 2000 nM | 251 to 1000 nM
16 | CCN1Cc2ccccc2CC1CCC(N)(CCCCB(O)O)C(=O)O (stereo not drawn) [compound 130, 2-amino-6-borono-2-(2-(2-ethyl-1,2,3,4-tetrahydroisoquinolin-3-yl)ethyl)hexanoic acid dihydrochloride] | 251 to 1000 nM | 0.1 to 250 nM
17 | NC(CCCCB(O)O)(CCC1Cc2ccccc2CN1Cc1ccc(Cl)cc1)C(=O)O (stereo not drawn) [compound 132, 2-amino-6-borono-2-(2-(2-(4-chlorobenzyl)-1,2,3,4-tetrahydroisoquinolin-3-yl)ethyl)hexanoic acid dihydrochloride] | 251 to 1000 nM | 0.1 to 250 nM
18 | NC(CCCCB(O)O)(CCC1Cc2ccccc2CN1CC1CCCCC1)C(=O)O (stereo not drawn) [compound 134, 2-amino-6-borono-2-(2-(2-(cyclohexylmethyl)-1,2,3,4-tetrahydroisoquinolin-3-yl)ethyl)hexanoic acid dihydrochloride] | 251 to 1000 nM | 0.1 to 250 nM
19 | CC(C)CN1Cc2ccccc2CC1CCC(N)(CCCCB(O)O)C(=O)O (stereo not drawn) [compound 135, 2-amino-6-borono-2-(2-(2-isobutyl-1,2,3,4-tetrahydroisoquinolin-3-yl)ethyl)hexanoic acid dihydrochloride] | 251 to 1000 nM | 0.1 to 250 nM

Further lines, results first:

Row | IC50 [1] | IC50 [2] | SMILES
20 | 251 to 1000 nM | 0.1 to 250 nM | NC(CCCCB(O)O)(C(=O)O)C(O)C1CNC1 (stereo not drawn) [compound 113, 2-amino-2-(azetidin-3-yl(hydroxy)methyl)-6-boronohexanoic acid dihydrochloride]
21 | 251 to 1000 nM | 251 to 1000 nM | NC(CCCCB(O)O)(CC1CN(CCc2ccc(Cl)cc2Cl)C1)C(=O)O (stereo not drawn) [compound 118, 2-amino-6-borono-2-((1-(2,4-dichlorophenethyl)azetidin-3-yl)methyl)hexanoic acid dihydrochloride]
22 | 251 to 1000 nM | 251 to 1000 nM | NC(CCCCB(O)O)(CCN1CCC(c2ccc(Cl)cc2)CC1)C(=O)O (stereo not drawn) [compound 121, 2-amino-6-borono-2-(2-(4-(4-chlorophenyl)piperidin-1-yl)ethyl)hexanoic acid dihydrochloride]
23 | 251 to 1000 nM | 251 to 1000 nM | NC(CCCCB(O)O)(CCN1CCC(Cc2ccc(Cl)cc2)CC1)C(=O)O (stereo not drawn) [compound 122, 2-amino-6-borono-2-(2-(4-(4-chlorobenzyl)piperidin-1-yl)ethyl)hexanoic acid dihydrochloride]
24 | 251 to 1000 nM | 251 to 1000 nM | NC(CCCCB(O)O)(CCN1CCC(Cc2ccccc2)CC1)C(=O)O (stereo not drawn) [compound 125, 2-amino-2-(2-(4-benzylpiperidin-1-yl)ethyl)-6-boronohexanoic acid dihydrochloride]
25 | 251 to 1000 nM | 251 to 1000 nM | NC(CCCCB(O)O)(CCN1CCC(Cc2ccc(C(F)(F)F)cc2)CC1)C(=O)O (stereo not drawn) [compound 126, 2-amino-6-borono-2-(2-(4-(4-(trifluoromethyl)benzyl)piperidine-1-yl)ethyl)hexanoic acid dihydrochloride]
26 | 0.1 to 250 nM | 0.1 to 250 nM | CC(C)CCN1Cc2ccccc2CC1CCC(N)(CCCCB(O)O)C(=O)O (stereo not drawn) [compound 133, 2-amino-6-borono-2-(2-(2-isopentyl-1,2,3,4-tetrahydroisoquinolin-3-yl)ethyl)hexanoic acid dihydrochloride]
27 | 0.1 to 250 nM | 0.1 to 250 nM | CNC(CCCCB(O)O)(CCCNCc1ccc(Cl)c(Cl)c1)C(=O)O (stereo not drawn) [compound 136, 6-borono-2-(3-(3,4-dichlorobenzylamino)propyl)-2-(methylamino)hexanoic acid dihydrochloride]
28 | 0.1 to 250 nM | 0.1 to 250 nM | CNC(CCCCB(O)O)(CCCN1CCCC1)C(=O)O (stereo not drawn) [compound 137, 6-borono-2-(methylamino)-2-(3-(pyrrolidin-1-yl)propyl)hexanoic acid dihydrochloride]
29 | 0.1 to 250 nM | 0.1 to 250 nM | CNC(CCCCB(O)O)(CCCNC1Cc2ccccc2C1)C(=O)O (stereo not drawn) [compound 138, 6-borono-2-(3-(2,3-dihydro-1H-inden-2-ylamino)propyl)-2-(methylamino)hexanoic acid dihydrochloride]
30 | 0.1 to 250 nM | 0.1 to 250 nM | CNC(CCCCB(O)O)(CCCNCc1ccc(Cl)cc1)C(=O)O (stereo not drawn) [compound 139, 6-borono-2-(3-(4-chlorobenzylamino)propyl)-2-(methylamino)hexanoic acid dihydrochloride]
31 | 0.1 to 250 nM | 0.1 to 250 nM | NC(CCCCB(O)O)(CCCNCCc1ccc(Cl)cc1Cl)C(=O)O (stereo not drawn) [compound 140, 2-amino-6-borono-2-(3-(2,4-dichlorophenethylamino)propyl)hexanoic acid dihydrochloride]
32 | 0.1 to 250 nM | 0.1 to 250 nM | NC(CCCCB(O)O)(CCCNCc1ccc(Cl)c(Cl)c1)C(=O)O (stereo not drawn) [compound 141, 2-amino-6-borono-2-(3-(3,4-dichlorobenzylamino)propyl)hexanoic acid dihydrochloride]
33 | 0.1 to 250 nM | 0.1 to 250 nM | NC(CCCCB(O)O)(CC[C@@H]1CCCN1)C(=O)O (stereo partly drawn) [compound 143, 2-amino-6-borono-2-(2-((S)-pyrrolidin-2-yl)ethyl)hexanoic acid dihydrochloride]
